Measured values published in article PMC12596500, “Affinity-selected peptide ligands specifically bind i-motif DNA and modulate c-Myc gene expression” (Nucleic Acids Research, 2025).
Like-named read-outs stand apart in the source and are kept apart here. Peptide text beside a SMILES is read from it.

Columns and labels:
c-MycC52 [1] = details: 10 µM DNA; for TM c-MycC52, first (lower) transition / TM c-MycC52, second (higher) transition: 10 mM NaCaco pH 6.6, 10 molar eqv. peptide, mean ± SEM (n=4); for ΔTM c-MycC52, transition at lower temperatures / ΔTM c-MycC52, second transition at higher temperatures: 10 mM sodium cacodylate pH 6.6, 10 molar equivalents peptide vs DMSO, mean ± SEM (n = 4)
Experimental: (§1) Circular Dichroism (CD) melting experiments were performed in a Jasco J-1500 spectropolarimeter with 10 µM DNA samples in 10 mM sodium cacodylate buffer at pH 6.6 using a 1 mm path length quartz cuvette. […] The samples were kept at 5°C for 5 min before starting the melt, with a temperature increase of 1°C/min, a 0.5°C data interval, and a 60-s holding time at each target temperature. Four scans were accumulated data pitch of 0.5 nm, a scanning speed of 200 nm/min, 1 s response time, 2 nm bandwidth, and 200 mdeg sensitivity. Furthermore, two CD melting experiment repeats were performed recording C-rich c-Myc at 288 and 320 nm, G-rich c-Myc at 264 and 320 nm, and dsDNA at 253 and 320 nm with the settings as described for full spectrum measurements. Data were zero corrected to 320 nm and baseline drift. The melting temperature (TM) was concluded using the Boltzmann or biphasic fitting curve on the folded fraction data using GraphPad Prism version 10.1.2. Data were processed as mean ± SEM (n = 4) and one-way ANOVA followed by Bonferroni post-hoc test to determine significant changes between peptides and controls.

c-MycG52 = details: 10 µM DNA; for TM c-MycG52: 10 mM NaCaco pH 6.6, 10 molar eqv. peptide, mean ± SEM (n=4); for ΔTM c-MycG52: 10 mM sodium cacodylate pH 6.6, 10 molar equivalents peptide vs DMSO, mean ± SEM (n = 4)
Experimental: as §1

DAPg = assay: UV titration, DAPg; format: binding; design: key to Kd DAPg, 100 mM KCl: Binding classified as non-specific (NS) showed no consistent or concentration-dependent pattern, under the tested conditions; key to Kd DAPg: NS = non-specific binding indicates where no significant pattern of binding was observed at the concentration range of the experiment; details: for Kd DAPg: UV titration at 350 nm, 10 µM peptide, 10 mM sodium cacodylate pH 6.6, no KCl; for Kd DAPg, 100 mM KCl: UV titration, 10 mM sodium cacodylate 100 mM potassium chloride pH 6.6, two experiments
Experimental: (§2) UV titrations were recorded using an Agilent Cary-60 UV/VIS spectrometer with a 10 mm path length black-walled quartz cuvette. Oligonucleotides (c-MycC27, c-MycC52, c-MycG27, c-MycG52, DAPc, DAPg, and dsDNA; sequences listed in Supplementary Table S1) were annealed as 250 µM stock solutions in 10 mM sodium cacodylate buffer (pH 6.6) in the presence or absence of 100 mM KCl. Spectra were recorded at room temperature over a wavelength range of 300–500 nm with 1 nm intervals. Buffer-only spectra were recorded and subtracted from each dataset as blanks. Peptide ligands were prepared as 1 mM stock solutions in DMSO and added to the cuvette at a final concentration of 10 µM in buffer prior to DNA addition. DNA stock was diluted to 50 µM in buffer and was added stepwise to the peptide solution to reach 2.5 µM final concentration, followed by additions from the 250 µM DNA stock to reach final DNA concentrations of 30 or 50 µM. The absorbance at 350 nm was monitored and plotted against DNA concentration. Binding curves were fitted using a one-site binding model in GraphPad Prism version 10.1.2, and Kd values were determined from normalized data to represent the DNA-ligand bound fraction.
(§3) Despite the demonstrable importance of the extended five-tract C-rich sequence within the c-Myc promoter, most studies looking at ligand binding use the shorter sequences. […] Although the iM-targeting antibody is specific for iM as a structure, it also binds multiple types of iM-structures.

DAPc = assay: UV titration, DAPc; format: binding; design: key to Kd DAPc, 100 mM KCl: Binding classified as non-specific (NS) showed no consistent or concentration-dependent pattern, under the tested conditions; key to Kd DAPc: NS = non-specific binding indicates where no significant pattern of binding was observed at the concentration range of the experiment; details: for Kd DAPc: UV titration at 350 nm, 10 µM peptide, 10 mM sodium cacodylate pH 6.6, no KCl; for Kd DAPc, 100 mM KCl: UV titration, 10 mM sodium cacodylate 100 mM potassium chloride pH 6.6, two experiments
Experimental: as §2, §3

c-MycC52 [2] = assay: UV titration, c-MycC52; format: binding; details: for Kd: average of three experiments ± SD, SD; for selectivity for c-MycC52 against the complementary G4 forming sequence: from UV titration Kd values
Experimental: as §2, §3

dsDNA (DS) = assay: CD melting of double-stranded DNA; format: binding; details: for TM DS / ΔTM DS: 10 µM DNA, SEM; for TM DS / effect on dsDNA melting compared to the solvent controls, in words: 10 mM NaCaco pH 6.6, 10 molar eqv. peptide; for TM DS: mean ± SEM (n=4); for ΔTM DS: 10 mM sodium cacodylate pH 6.6, 10 molar equivalents peptide vs DMSO, mean ± SEM (n = 4); for effect on dsDNA melting compared to the solvent controls, in words: 10 µM DS
Experimental: as §1

c-MycG27 = assay: CD melting of c-MycG27; format: binding; details: 10 µM DNA; for TM c-MycG27: 10 mM NaCaco pH 6.6, 10 molar eqv. peptide, mean ± SEM (n=4); for effect on c-MycG27 thermal stability, in words: pH 6.6, 10 molar equivalents peptide
Experimental: as §1

[3] = UV titration at 350 nm, 10 µM peptide, 10 mM sodium cacodylate pH 6.6, no KCl, room temperature, read-out: Kd c-MycC52
[4] = read-out: Kd c-MycC52, 100 mM KCl, UV titration, 10 mM sodium cacodylate 100 mM potassium chloride pH 6.6

SMILES | TM c-MycC52, first (lower) transition (c-MycC52 [1]; SEM) [°C] | TM c-MycC52, second (higher) transition (c-MycC52 [1]; SEM) [°C] | ΔTM c-MycC52, second transition at higher temperatures (c-MycC52 [1]; SEM) [°C] | ΔTM c-MycC52, transition at lower temperatures (c-MycC52 [1]; SEM) [°C] | TM c-MycG52 (c-MycG52) [°C] | ΔTM c-MycG52 (c-MycG52) | Kd DAPg (DAPg) | Kd DAPg, 100 mM KCl (DAPg) | Kd DAPc (DAPc) | Kd DAPc, 100 mM KCl (DAPc) | Kd (c-MycC52 [2]; [3]) [nM] | selectivity for c-MycC52 against the complementary G4 forming sequence (c-MycC52 [2]) | Kd (c-MycC52 [2]; [4]) [nM] | TM DS (dsDNA (DS)) [°C] | ΔTM DS (dsDNA (DS)) [°C] | effect on dsDNA melting compared to the solvent controls, in words (dsDNA (DS)) | TM c-MycG27 (c-MycG27; SEM) [°C] | effect on c-MycG27 thermal stability, in words (c-MycG27) | also measured
CC(=O)N1CCC[C@H]1C(=O)N[C@H](C(=O)N[C@@H](CC(N)=O)C(=O)N[C@H](C(=O)N[C@@H](CO)C(=O)NCC(=O)N[C@@H](CCCNC(=N)N)C(=O)N[C@@H](CC(N)=O)C(=O)N[C@@H](Cc1ccc(O)cc1)C(=O)N[C@@H](CC(C)C)C(=O)N[C@@H](Cc1ccccc1)C(=O)N[C@@H](CS)C(N)=O)C(C)C)[C@@H](C)O [Pep-PTN] (Ac-PTNVSGRNYLFC-NH2) | 32 ± 2.0 | 79 ± 0.8 | −2 ± 0.3 | −1 ± 0.5 | 45 ± 1.0 | +2 ± 0.3 °C | NS | NS | NS | NS | 930 ± 80 | about 50 fold | 1540 ± 30 | 52 ± 1.0 | 0 ± 0.6 | no effect on dsDNA melting | 50 ± 1.0 | neither stabilized nor destabilized | ΔTM c-MycC52, transition at lower temperatures (c-MycC52 [1]): no significant change; decrease in TM of the more stable iM population of c-MycC52 (c-MycC52 [1]; pH 6.6, 10 molar equivalents peptide, given as a decrease, without sign): 2 ± 0.3 °C; ΔTM c-MycG27 (c-MycG27; 10 mM sodium cacodylate pH 6.6, 10 molar equivalents peptide vs DMSO, mean ± SEM (n = 4), SEM): −1 ± 0.5 °C
CC(=O)N[C@H](C(=O)N[C@@H](CO)C(=O)N[C@@H](CCC(=O)O)C(=O)N[C@@H](C)C(=O)N[C@@H](Cc1c[nH]c2ccccc12)C(=O)N[C@@H](CCCCN)C(=O)N[C@@H](CCC(=O)O)C(=O)N[C@H](C(=O)N[C@@H](CCCCN)C(=O)NCC(=O)N[C@@H](Cc1ccccc1)C(=O)N[C@@H](Cc1ccccc1)C(N)=O)C(C)C)C(C)C [Pep-VSE] (Ac-VSEAWKEVKGFF-NH2) | 33 ± 0.9 | 74 ± 0.7 | −14 ± 0.5 | −3 ± 0.2 | 48 ± 1.0 | +4 ± 0.1 °C | NS | NS | NS | NS | 430 ± 30 | ~100 fold | 690 ± 60 | 51 ± 0.8 | 0 ± 0.8 | no effect on dsDNA melting | 48 ± 1.0 | neither stabilized nor destabilized | 
